Source: patent US10676538B2, “Inhibitors of Staphylococcus pseudintermedius sortase” (priority 2017, dated 2020)
Like-named read-outs stand apart in the source and are kept apart here.

What was measured:
[1] = tested on: S. pseudintermedius recombinant SrtA; assay: in vitro FRET-based functional assay of recombinant SrtA; format: biochemical, Staphylococcus pseudintermedius; conditions: compared to buffer controls, averages from three independent experiments
Description: Compounds predicted to bind to the active site were identified. Initially, from the 200 highest ranked compounds, twenty were selected. […] The assay to determine the functional activity of recombinant SrtA and its inhibition was performed in 96-well black microtiter plates with clear bottom (Corning, Fisher Scientific, Hampton, N.H.) in a final reaction volume of 200 μl. Fluorescent-quenched bacterial sortase substrate III, Abz/DNP (Abz-LPETG-K(Dnp)-NH2 (GenScript Inc., Piscataway, N.J.) dissolved in isopropanol was used for Km determination. Varying concentrations of the substrate (2.5 μM-200 μM) were incubated at 25° C. with 1 μM of SrtA diluted in assay buffer (50 mM Tris-HCl, 150 mM NaCl, 5 mM CaCl2, and 0.1% Triton X-100, pH 7.5). The increase in fluorescence was measured in a kinetic assay for 20 min at 2 min intervals using a Synergy HTX multimode reader (BioTek, Winooski, Vt.) at wavelengths 320 excitation/420 emission. The initial velocity V0 was determined from the linear portion of the curve and the Km was determined using the Michaelis-Menten equation where V=Vmax[S]/([S]+Km). To measure the effect of inhibitors recombinant SrtA was pre-incubated with varying amounts of the inhibitor at […] and subjected to the same FRET assay.

[2] = tested on: S. pseudintermedius isolates; assay: flow cytometry of cell wall-associated Protein A on bacteria grown with inhibitor (indirect SrtA inhibition); format: cell-based, Staphylococcus pseudintermedius; conditions: compared to control without inhibitor
Description: FIG. 4: […] bacterial isolates 08-3228, 08-1661, NA12, NA16 and NA45 were grown in the presence of inhibitor 1847 until exponential log phase. S. pseudintermedius recombinant SrtA inhibition was measured indirectly by determining the density of cell wall associated Protein A (one of the LPXTG proteins targeted by SrtA) using flow cytometry. Protein A was detected with FITC conjugated chicken anti-protein A (Gallus immunotech, Cary, N.C.). The values represent average from three independent experiments with the standard deviations shown at the top of each bar.
Inhibition of SrtA in bacterial cells was measured indirectly by measuring the decrease in the amount of Protein A on the bacterial surface using flow cytometry. Five representative S. pseudintermedius isolates were tested. […] Isolate NA45 was not affected by compound 1847.

[3] = tested on: Sortase A; conditions: 10 μM SrtA, 4 μM inhibitor

C[N+](C)(C)CCSS(C)(=O)=O.[Br-] [MTSET, reference compound] was tested, and the “inhibition of SrtA” value [1] was 57.5%.
In the case of O=S(=O)(O)c1ccc(N=Nc2ccccc2)cc1 [Compound 1847], the “inhibition of SrtA” value [1] is reported as 50-80%, the “reduction in the density of cell wall-associated Protein A” value (“reduction in the density” for short) ([2]; isolate 06-3228) is reported as 38.7% and the “reduction in the density” value ([2]; isolate 08-1661) is reported as 74.3%. For the same molecule, the “reduction in the density” value ([2]; isolate NA12) was 42.8%, the “reduction in the density” value ([2]; isolate NA16) was 89.4% and the “reduction in the density” value ([2]; isolate NA45) was “not affected”. For the same molecule, the “melting temperature of 1847-stabilized Sortase A” value ([3]; Srt A in His-Tag elution buffer) was 86.56 °C and the “melting temperature of 1847-stabilized Sortase A” value ([3]; Srt A in PBS) was 86.81 °C.
N#Cc1ccc(NS(=O)(=O)Cc2ccccc2)cc1 [STK022091] was tested, and the “inhibition of SrtA” value [1] was “did not have any detectable inhibitory effect” and the “inhibition of SrtA” value ([1]; listed as SKT022091) was “did not have inhibitory effect”.
COc1ccc(N2CCN(S(=O)(=O)Cc3ccc(F)cc3)CC2)cc1 [STL223442] was tested, and the “inhibition of SrtA” value [1] was 13.75%.
